Data from patent publication US8614240B2, “Benzoxazole derivatives having inhibitory activity against interleukin-6, preparation method thereof, and pharmaceutical composition containing the same” (EWHA University-Industry Collaboration Foundation, priority 2010, dated 2013).

Tests used:
C57BL/6 female mice = assay: In vivo test of toxicity of the compounds (body weight, appearance)
Procedure: In the animal experiments, C57BL/6 female mice (control group 4 mice, test group (dose group) 4 mice) obtained from Central Lab. Animal Inc. were used. The experimental animals were acclimated by breeding them at the place established with temperature 23 ±3° C., relative humidity 50 ±10%, lighting time 12 hours (6 a.m.-6 p.m.), number of ventilation 10-20 times/hour, and illuminance 150-300 Lux, for one week. All the testers who evaluated the activity in animals worn high-pressure steam sterilized (121° C., 20 minutes) working clothes, hood, mask and gloves, and conducted the experiment. During the periods of accommodation and quarantine the experimental animals were accommodated in a polycarbonate-made shoes box-type breeding cage (260W×410L×200H mm) by 4 mice in each cage. During the periods of administration and observation, the experimental animals were accommodated in a wire breeding cage (205W×350 L×175H mm) with one mouse in each cage. During the period of experiments, the breeding cages were discriminated with attaching the labels in which the experiment numbers and the animal numbers were entered. The animals were allowed to freely ingest a radiation-sterilized (25 kGy, Picolab) solid feed for experimental animals as the feed, and tap water, which was sterilized with an autoclave, as the drinking water by means of a water bottle. […]

[1] = system: Zymosan A-induced paw inflammation in C57BL/6 mice; assay: Zymosan A-induced paw inflammation, effect of alleviating the inflammation; type: in vivo, mouse; conditions: for Difference between the thicknesses of the right paw and left paw: Zymosan and 30 mg/kg Compound 3 into right paw
Procedure: For this experiment, C57BL/6 mice were obtained from Central Lab. Animal Inc., and acclimated for one week and then used in the experiment. The gender of animals used in the experiment was female, and 4 mice were used in each of the control group and the test group (Doe group). To experiment Compound 3's effect of alleviating the inflammation, the thicknesses of paws having the inflammation is reduced by injecting 3 mg of Zymosan A and 30 mg/kg of Compound 3 into right paws of the experimental animals, and both the paw thicknesses in the control group to which Zymosan A was administered to induce the inflammation and the control group having no treatment were measured every day, and the results are as shown in FIG. 7.
When the paw thickness was measured every day after inducing the inflammatory reaction by Zymosan, a difference between the thicknesses of the right paw and left paw was 8.5, 7.0, 6.5, 5.5, 5.6 mm. It could be identified that by treatment with Zymosan and Compound 3 the inflammatory reaction was alleviated so that a difference between paw thicknesses was 6.0, 3.0, 2.0, 1.9, 1.8 mm. A difference between paw thicknesses could also be identified in real photographs of the group treated only with Zymosan, the test group treated with Zymosan and Compound 3, and the control group having no treatment of the experimental animals on the 6th day in the inflammation alleviating assay (FIG. 8).

[2] = system: IL-6 induced STAT3 phosphorylation; assay: Test for inhibitory activity against STAT3 phosphorylation induced by IL-6 (Western blot, HepG2); type: cell-based, human; conditions: HepG2, 1, 3, 10, 30, 100 ug/ml, 10 ng/ml IL-6 (FIG. 4)
Procedure: HepG2 cells were divisionally inoculated in 6-well plate in the ratio of 5×10^4 cells/well, and grown to be 80% confluent. After changing to a serum-free medium and incubating for 6 hours, cells were pre-treated with the samples for one hour. […] Then the mixture was centrifuged (13,000×g, 15 minutes) to obtain a lysate as the supernatant. Herein, HepG2 cells not treated with IL-6 and the samples were used as the control group. The concentration of proteins was quantified by means of Bio-Rad DC protein assay kit, and the protein was loaded on 10% SDS-polyacrylamide gel (SDS-PAGE) and electrophoresed at 30 mA for 2 hours. After completion of the electrophoresis, the protein on gel was transcribed into PVDF membrane (Westran® S, pore size […]) at 90V for 90 minutes, and the transcribed membrane was blocked with Tris-buffered solution (T-TBS; 50 mM Tri-HCl, pH 7.6, 150 mM NaCl, 0.2% Tween-20, 5% skim milk) at 4° C. for 12 hours, and washed five time with T-TBS. The membrane was treated with polyclonal antibodies of phospho-STAT3 (1:1000 dilutions, respectively) as the primary antibody for 2 hours. After washing five times with T-TBS, the membrane was reacted with HRP-conjugated anti-rabbit antibody (1:5000 dilutions) as the secondary antibody for one hour. After washing with T-TBS, the film was developed in the dark room by means of ECL.

CCc1ccc(Nc2nc3cc(NC(=O)c4ccccc4)ccc3o2)cc1 [Compound 3, N-(2-(4-ethylphenylamino)benzo[d]oxazol-5-yl)benzamide]
Change in body weight compared to the control group (C57BL/6 female mice; 30 mg/kg intraperitoneally once a day, 5 days, C57BL/6 female mice (FIG. 6)): did not show any change in the weight
Toxic symptom in appearance (C57BL/6 female mice; after 6 days, C57BL/6 female mice): did not show any toxic symptom in appearance
Effect of alleviating the inflammation ([1]; 30 mg/kg, Zymosan A-induced paw inflammation (FIGS. 7, 8)): exhibited the effect of alleviating the inflammation
Difference between the thicknesses of the right paw and left paw ([1]; 1st daily measurement): 6.0 mm
Difference between the thicknesses of the right paw and left paw ([1]; 2nd daily measurement): 3.0 mm
Difference between the thicknesses of the right paw and left paw ([1]; 3rd daily measurement): 2.0 mm
Difference between the thicknesses of the right paw and left paw ([1]; 4th daily measurement): 1.9 mm
Difference between the thicknesses of the right paw and left paw ([1]; 5th daily measurement): 1.8 mm
Inhibitory activity on IL-6 induced STAT3 phosphorylation [2]: inhibited IL-6 expression in a concentration-dependent manner
